{"source": "patent US20150272939A1", "about": "“Identification of Small Molecule Inhibitors of Jumonji AT-Rich Interactive Domain 1A (JARID1A) and 1B (JARID1B) Histone Demethylase” (Yale University, priority 2012, published 2015)", "key": {"UTX": {"molecular_target": "T1, UTX (Homo sapiens, UniProt O15550)", "T1 construct": "His (N); FLAG (N); made in house; host or cells: Sf21 insect cells (baculovirus)", "experiment": "His-FLAG-UTX H3K27me3 demethylase assay with AlphaScreen detection", "format": "biochemical", "conditions": "compound 10 μM, 64 nM bio-H3K27me3 peptide", "procedure": "Histone demethylase assays were performed in 384 well white plates (Corning 3574). Demethylase buffer conditions for FLAG-JARID1B were as follows: 10 μM α-KG, 100 μM ascorbate, 50 μM (NH4)2Fe(SO4)2, 50 mM Hepes (pH 7.5), 0.01% (v/v) Tween 20, and 0.1% (w/v) bovine serum albumin. The demethylase reactions included 64 nM bio-H3K4me3 peptide alone or in the presence of 4 nM FLAG-JARID1B enzyme in a 10 μl reaction at 25° C. for 30 minutes. As a positive control, 64 nM bio-H3K4me2 peptide was assayed in the absence of enzyme. Assay conditions for FLAG-JARID1C is the same as for FLAG-JARID1B except that 20 nM enzyme was used. For FLAG-JARID1A, the demethylase buffer was similar to FLAG-JARID1B, except that 125 μM α-KG and 13 nM FLAG-JARID1A enzyme were used. […]\nThe AlphaScreen General IgG (Protein A) detection kit was obtained from PerkinElmer. Demethylated H3K4 products were detected using AlphaScreen antibody/bead mix containing 7.5 mM ethylenediaminetetraacetic acid (EDTA) and 0.15 μg/ml anti-H3K4me1 antibody in a final volume of 20 μl. […] The luminescence signal was measured using the Envision (PerkinElmer) or Pherastar (BMG Labtech) Platereaders."}, "JARID1A": {"molecular_target": "T2, JARID1A (Homo sapiens, UniProt P29375)", "T2 construct": "the high-throughput screen of the invention utilizes full length JARID1A or JARID1B; FLAG (N); made in house; host or cells: Sf21 insect cells (baculovirus)", "T2 sequence (P29375 whole entry)": "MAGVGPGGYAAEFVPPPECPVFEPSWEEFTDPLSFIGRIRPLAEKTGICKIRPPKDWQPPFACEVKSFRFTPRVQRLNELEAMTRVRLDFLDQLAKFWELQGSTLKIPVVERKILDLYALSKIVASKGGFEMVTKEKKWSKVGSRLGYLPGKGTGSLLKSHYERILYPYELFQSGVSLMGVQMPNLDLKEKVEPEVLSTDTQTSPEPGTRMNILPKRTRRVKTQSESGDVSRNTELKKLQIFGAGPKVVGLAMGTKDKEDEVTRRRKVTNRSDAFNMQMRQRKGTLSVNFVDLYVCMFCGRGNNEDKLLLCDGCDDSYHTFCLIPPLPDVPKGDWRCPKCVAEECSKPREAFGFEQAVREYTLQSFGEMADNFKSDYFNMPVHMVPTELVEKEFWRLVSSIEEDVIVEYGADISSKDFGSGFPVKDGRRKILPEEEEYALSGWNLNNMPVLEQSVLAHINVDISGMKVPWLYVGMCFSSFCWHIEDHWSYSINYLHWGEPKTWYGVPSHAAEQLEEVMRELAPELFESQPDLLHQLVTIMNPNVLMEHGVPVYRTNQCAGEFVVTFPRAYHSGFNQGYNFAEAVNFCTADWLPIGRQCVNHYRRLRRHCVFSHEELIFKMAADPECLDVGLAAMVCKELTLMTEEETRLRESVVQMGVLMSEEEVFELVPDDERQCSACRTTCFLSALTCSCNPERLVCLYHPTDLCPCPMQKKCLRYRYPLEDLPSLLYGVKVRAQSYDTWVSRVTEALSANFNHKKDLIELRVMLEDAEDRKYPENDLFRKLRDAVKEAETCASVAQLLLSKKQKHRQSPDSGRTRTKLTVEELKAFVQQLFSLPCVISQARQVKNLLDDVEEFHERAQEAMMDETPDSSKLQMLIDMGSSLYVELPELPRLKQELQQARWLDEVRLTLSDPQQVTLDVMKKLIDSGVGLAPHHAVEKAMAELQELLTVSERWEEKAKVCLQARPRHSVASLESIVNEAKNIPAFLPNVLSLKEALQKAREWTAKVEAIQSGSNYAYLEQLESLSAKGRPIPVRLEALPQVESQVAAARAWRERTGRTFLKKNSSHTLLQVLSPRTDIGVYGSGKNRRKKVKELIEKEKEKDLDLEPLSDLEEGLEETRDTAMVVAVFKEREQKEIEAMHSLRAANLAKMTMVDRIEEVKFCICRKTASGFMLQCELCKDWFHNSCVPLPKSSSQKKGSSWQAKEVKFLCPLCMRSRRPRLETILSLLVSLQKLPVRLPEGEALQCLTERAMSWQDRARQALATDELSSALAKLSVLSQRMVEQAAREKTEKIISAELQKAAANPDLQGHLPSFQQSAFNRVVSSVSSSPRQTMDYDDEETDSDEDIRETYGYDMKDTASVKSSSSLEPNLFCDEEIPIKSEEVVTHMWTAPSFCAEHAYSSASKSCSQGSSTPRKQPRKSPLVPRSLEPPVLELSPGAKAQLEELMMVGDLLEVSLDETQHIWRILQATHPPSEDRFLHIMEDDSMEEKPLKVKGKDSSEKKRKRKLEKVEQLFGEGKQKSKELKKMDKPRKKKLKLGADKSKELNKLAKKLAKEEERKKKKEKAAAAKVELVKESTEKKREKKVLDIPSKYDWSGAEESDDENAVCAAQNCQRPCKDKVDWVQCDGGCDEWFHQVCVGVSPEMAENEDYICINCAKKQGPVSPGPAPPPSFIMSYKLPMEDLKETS", "experiment": "FLAG-JARID1A histone demethylase assay with AlphaScreen detection (HTS and dose response)", "format": "biochemical", "conditions": "for IC50: dose response, 50 μM Fe (II), read-out: IC50 against JARID1A", "procedure": "(§1) Histone demethylase assays were performed in 384 well white plates (Corning 3574). Demethylase buffer conditions for FLAG-JARID1B were as follows: 10 μM α-KG, 100 μM ascorbate, 50 μM (NH4)2Fe(SO4)2, 50 mM Hepes (pH 7.5), 0.01% (v/v) Tween 20, and 0.1% (w/v) bovine serum albumin. The demethylase reactions included 64 nM bio-H3K4me3 peptide alone or in the presence of 4 nM FLAG-JARID1B enzyme in a 10 μl reaction at 25° C. for 30 minutes. As a positive control, 64 nM bio-H3K4me2 peptide was assayed in the absence of enzyme. Assay conditions for FLAG-JARID1C is the same as for FLAG-JARID1B except that 20 nM enzyme was used. For FLAG-JARID1A, the demethylase buffer was similar to FLAG-JARID1B, except that 125 μM α-KG and 13 nM FLAG-JARID1A enzyme were used. The His-FLAG-UTX and FLAG-JMJD3 demethylase assays also employed the same buffer conditions as for FLAG-JARID1B, with 64 nM bio-H3K27me3 peptide assayed with or without 25 nM His-FLAG-UTX enzyme or 50 nM FLAG-JMJD3 (BPS Bioscience, 50115), and 64 nM bio-H3K27me2 peptide as a positive control. JARID1A, JARID1C, UTX, and JMJD3 histone demethylase assays proceeded at 37° C. for 1 hour.\n(§2) The AlphaScreen General IgG (Protein A) detection kit was obtained from PerkinElmer. Demethylated H3K4 products were detected using AlphaScreen antibody/bead mix containing 7.5 mM ethylenediaminetetraacetic acid (EDTA) and 0.15 μg/ml anti-H3K4me1 antibody in a final volume of 20 μl. For detection of demethylated H3K27 products, the AlphaScreen antibody/bead mix containing 7.5 mM EDTA and 0.15 μg/ml anti-H3K27me2 antibody in a final volume of 20 μl. The luminescence signal was measured using the Envision (PerkinElmer) or Pherastar (BMG Labtech) Platereaders.\nFLAG-JARID1A was screened against 9,600 compounds. These compound libraries were from the Yale Center for Molecular Discovery. The libraries screened include the MicroSource Gen-Plus, MicroSource Pure Natural Products, NIH Clinical Collection, Enzo Epigenetics, and ChemBridge MW-Set libraries. Compounds dissolved in dimethyl sulfoxide (DMSO) were pintooled into a 384 well plate containing bio-H3K4me3 peptide in demethylase buffer to a final concentration of 20 μM. The reactions were initiated by the addition of 13 nM FLAG-JARID1A, and detected as described above. To eliminate the false positive hits, a counterscreen was performed against bio-H3K4me2 in the absence of enzyme."}, "JARID1B": {"molecular_target": "T3, JARID1B (Homo sapiens, UniProt Q9UGL1)", "T3 construct": "The FLAG tagged full length JARID1B enzyme was expressed in Sf21 insect cells using FLAG-JARID1B baculoviruses; FLAG (N); made in house; host or cells: Sf21 insect cells (baculovirus)", "T3 sequence (Q9UGL1 whole entry)": "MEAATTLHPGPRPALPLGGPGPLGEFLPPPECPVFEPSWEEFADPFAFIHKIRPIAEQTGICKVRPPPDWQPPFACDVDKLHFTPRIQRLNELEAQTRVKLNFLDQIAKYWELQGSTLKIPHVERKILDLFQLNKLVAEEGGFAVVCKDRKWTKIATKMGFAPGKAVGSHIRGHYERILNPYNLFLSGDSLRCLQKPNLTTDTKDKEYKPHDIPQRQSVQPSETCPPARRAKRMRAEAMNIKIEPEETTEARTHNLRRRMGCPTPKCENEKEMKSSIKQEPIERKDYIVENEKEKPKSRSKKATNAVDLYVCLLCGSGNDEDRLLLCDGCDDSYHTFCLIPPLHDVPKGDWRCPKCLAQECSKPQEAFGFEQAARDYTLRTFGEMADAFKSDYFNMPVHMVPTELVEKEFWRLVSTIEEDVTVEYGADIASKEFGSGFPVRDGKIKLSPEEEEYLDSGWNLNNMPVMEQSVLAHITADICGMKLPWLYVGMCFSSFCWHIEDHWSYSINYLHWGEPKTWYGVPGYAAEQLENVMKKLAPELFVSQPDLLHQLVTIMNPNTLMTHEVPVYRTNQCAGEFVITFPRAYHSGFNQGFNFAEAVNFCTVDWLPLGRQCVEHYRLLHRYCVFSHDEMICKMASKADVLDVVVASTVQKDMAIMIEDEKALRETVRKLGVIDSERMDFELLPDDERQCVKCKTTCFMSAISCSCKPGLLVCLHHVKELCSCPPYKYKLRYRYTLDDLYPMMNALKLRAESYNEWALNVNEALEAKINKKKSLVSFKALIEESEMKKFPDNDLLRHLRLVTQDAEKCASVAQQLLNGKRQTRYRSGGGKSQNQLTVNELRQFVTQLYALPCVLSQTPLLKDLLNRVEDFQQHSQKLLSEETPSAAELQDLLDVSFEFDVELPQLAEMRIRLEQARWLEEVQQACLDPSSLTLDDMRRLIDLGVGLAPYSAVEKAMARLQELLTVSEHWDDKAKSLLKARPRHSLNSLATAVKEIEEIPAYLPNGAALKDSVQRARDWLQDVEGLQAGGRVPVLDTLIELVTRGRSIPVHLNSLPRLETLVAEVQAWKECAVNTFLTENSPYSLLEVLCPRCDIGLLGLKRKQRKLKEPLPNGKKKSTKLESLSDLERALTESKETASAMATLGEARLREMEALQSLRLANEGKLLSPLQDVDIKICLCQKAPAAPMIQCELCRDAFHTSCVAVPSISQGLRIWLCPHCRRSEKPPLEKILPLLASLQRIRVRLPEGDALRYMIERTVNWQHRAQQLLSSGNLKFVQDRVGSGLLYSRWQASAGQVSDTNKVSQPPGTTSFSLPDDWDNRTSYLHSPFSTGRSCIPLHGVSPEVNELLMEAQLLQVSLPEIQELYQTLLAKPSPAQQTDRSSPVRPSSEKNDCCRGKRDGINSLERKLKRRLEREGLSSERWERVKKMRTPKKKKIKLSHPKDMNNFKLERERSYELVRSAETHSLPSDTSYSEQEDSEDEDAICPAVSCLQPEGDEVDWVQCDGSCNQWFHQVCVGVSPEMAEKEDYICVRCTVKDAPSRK", "experiment": "FLAG-JARID1B histone demethylase assay with AlphaScreen detection (HTS and dose response)", "format": "biochemical", "conditions": "for Assay − Artifact Signal (percent): assay signal minus artifact signal; for inhibition at 20 µM: read-out: Inhibitory effect (percent); for Assay Signal (percent) / Validation result of HTS active: effect of the compound in the JARID1B AlphaScreen demethylase assay: validation of HTS actives; for Assay Signal (percent): effect of compound in JARID1B AlphaScreen assay; for Validation result of HTS active: effect of the compound in the JARID1B AlphaScreen demethylase assay: total signal before subtraction of artifact signal"}, "JARID1C": {"molecular_target": "T4, JARID1C (Homo sapiens, UniProt P41229)", "T4 construct": "FLAG (N); made in house; host or cells: Sf21 insect cells (baculovirus)", "T4 sequence (P41229 whole entry)": "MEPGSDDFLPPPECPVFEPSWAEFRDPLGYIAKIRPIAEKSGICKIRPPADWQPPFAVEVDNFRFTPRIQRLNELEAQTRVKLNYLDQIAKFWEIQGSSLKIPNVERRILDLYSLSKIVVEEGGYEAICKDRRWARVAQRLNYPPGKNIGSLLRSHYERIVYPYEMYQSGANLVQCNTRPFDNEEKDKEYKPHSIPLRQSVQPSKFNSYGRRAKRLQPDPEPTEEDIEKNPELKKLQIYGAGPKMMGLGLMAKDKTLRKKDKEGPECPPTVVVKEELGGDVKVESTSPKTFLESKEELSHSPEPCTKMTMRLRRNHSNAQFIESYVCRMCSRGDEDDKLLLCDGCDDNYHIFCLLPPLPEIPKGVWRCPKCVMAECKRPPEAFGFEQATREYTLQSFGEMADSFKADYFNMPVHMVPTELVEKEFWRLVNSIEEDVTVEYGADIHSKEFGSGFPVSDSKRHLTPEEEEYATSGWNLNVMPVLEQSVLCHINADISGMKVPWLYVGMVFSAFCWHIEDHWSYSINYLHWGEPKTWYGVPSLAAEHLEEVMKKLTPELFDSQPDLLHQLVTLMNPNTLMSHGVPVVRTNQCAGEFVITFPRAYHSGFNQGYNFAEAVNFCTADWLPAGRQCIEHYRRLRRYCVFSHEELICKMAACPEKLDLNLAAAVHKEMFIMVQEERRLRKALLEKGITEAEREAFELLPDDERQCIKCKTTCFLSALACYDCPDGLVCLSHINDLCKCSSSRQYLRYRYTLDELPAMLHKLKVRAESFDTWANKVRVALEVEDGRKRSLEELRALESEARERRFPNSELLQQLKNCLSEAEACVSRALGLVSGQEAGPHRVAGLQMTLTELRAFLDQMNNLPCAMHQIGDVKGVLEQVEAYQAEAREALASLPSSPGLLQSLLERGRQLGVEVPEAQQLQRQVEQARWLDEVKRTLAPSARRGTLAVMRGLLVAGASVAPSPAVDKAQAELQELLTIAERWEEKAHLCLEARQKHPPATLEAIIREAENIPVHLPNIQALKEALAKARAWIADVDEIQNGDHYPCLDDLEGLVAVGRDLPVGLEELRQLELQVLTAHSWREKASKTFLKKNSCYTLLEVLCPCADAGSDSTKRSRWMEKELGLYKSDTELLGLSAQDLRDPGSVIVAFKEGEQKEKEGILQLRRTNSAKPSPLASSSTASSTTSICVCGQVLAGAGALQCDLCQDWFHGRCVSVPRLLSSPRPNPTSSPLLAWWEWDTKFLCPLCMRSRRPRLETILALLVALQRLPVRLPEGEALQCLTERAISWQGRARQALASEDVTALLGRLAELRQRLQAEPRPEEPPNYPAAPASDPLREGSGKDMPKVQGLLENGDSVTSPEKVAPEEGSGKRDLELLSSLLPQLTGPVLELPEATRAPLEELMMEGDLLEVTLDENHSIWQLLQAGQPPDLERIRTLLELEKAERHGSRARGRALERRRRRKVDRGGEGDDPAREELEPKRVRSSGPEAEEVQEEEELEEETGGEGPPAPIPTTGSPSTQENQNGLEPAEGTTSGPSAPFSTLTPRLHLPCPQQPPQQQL", "experiment": "FLAG-JARID1C histone demethylase assay with AlphaScreen detection", "format": "biochemical", "conditions": "compound 10 μM, 64 nM bio-H3K4me3 peptide", "procedure": "as §1, §2"}, "[1]": {"experiment": "AlphaScreen counterscreen against bio-H3K4me2 peptide in the absence of enzyme (artifact signal)", "conditions": "for Artifact Signal (percent): effect of the compound when incubated with bio-H3K4me2 peptide (counterscreen, no enzyme); for Artifact signal: effect of the compound when it is incubated with bio-H3K4me2 peptide: counterscreen, no enzyme"}, "[2]": {"conditions": "compound 10 μM, 64 nM bio-H3K4me3 peptide"}, "[3]": {"conditions": "high-throughput screen, compound 20 μM, standard demethylase conditions (10 μM α-KG, 50 μM Fe (II))"}}, "note": "Several values for one entry are separate records, joined by “and”; a condition that tells them apart may be missing. Equal values may be shown once. Where a name gives a salt, the structure may show the parent alone.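 For Assay Signal (percent) in this document: compound tested at 20 µM.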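 For Assay − Artifact Signal (percent) in this document: compound tested at 20 µM.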", "data": [{"smiles": "O=C(O)c1ccnc(C(=O)O)c1", "note": "[2,4-PDCA, 2,4-pyridinedicarboxylic acid monohydrate, reference compound]", "values": [{"measurement": "UTX demethylase activity", "setting": "UTX", "value": "did not inhibit"}, {"measurement": "JARID1A demethylase activity", "setting": "JARID1A; [2]", "value": "inhibited"}, {"measurement": "IC50", "setting": "JARID1A", "value": "4.1 µM and ~4 µM"}, {"measurement": "JARID1B demethylase activity", "setting": "JARID1B; [2]", "value": "inhibited"}, {"measurement": "JARID1C demethylase activity", "setting": "JARID1C", "value": "inhibited"}]}, {"smiles": "Sc1ncnc2nc[nH]c12", "note": "[Mercaptopurine]", "values": [{"measurement": "IC50", "setting": "JARID1A", "value": "~1", "unit": "µM"}]}, {"smiles": "C[C@](N)(Cc1ccc(O)c(O)c1)C(=O)O", "note": "[Methyldopa]", "values": [{"measurement": "IC50", "setting": "JARID1A", "value": "> 1", "unit": "µM"}]}, {"smiles": "COc1ccc(OC)c(Nc2nc(=O)c3cccnc3s2)c1", "note": "[YU151897]", "values": [{"measurement": "IC50", "setting": "JARID1A", "value": "≤ 3", "unit": "µM"}, {"measurement": "Assay − Artifact Signal (percent)", "setting": "JARID1B", "value": 42.55, "unit": "%"}, {"measurement": "inhibition at 20 µM", "setting": "JARID1B; [3]", "value": 47.6, "unit": "%"}, {"measurement": "Assay Signal (percent)", "setting": "JARID1B", "value": 40.43, "unit": "%"}, {"measurement": "Artifact Signal (percent)", "setting": "[1]", "value": "−2.12", "unit": "%"}]}, {"smiles": "C=CCn1c(Cc2nc3ccccc3[nH]2)n[nH]c1=S", "note": "[YU147658]", "values": [{"measurement": "Assay − Artifact Signal (percent)", "setting": "JARID1B", "value": 28.18, "unit": "%"}, {"measurement": "inhibition at 20 µM", "setting": "JARID1B; [3]", "value": 32.8, "unit": "%"}, {"measurement": "Assay Signal (percent)", "setting": "JARID1B", "value": 27.63, "unit": "%"}, {"measurement": "Artifact Signal (percent)", "setting": "[1]", "value": "−0.55", "unit": "%"}]}, {"smiles": "O=c1oc2c(O)c(O)cc3c(=O)oc4c(O)c(O)cc1c4c23", "note": "[YU034320, ELLAGIC ACID, reference compound]", "values": [{"measurement": "Assay − Artifact Signal (percent)", "setting": "JARID1B", "value": 9.70, "unit": "%"}, {"measurement": "Inhibitory effect (percent)", "setting": "JARID1B; [3]", "value": "61.25% and 40.88%"}, {"measurement": "Assay Signal (percent)", "setting": "JARID1B", "value": 12.08, "unit": "%"}, {"measurement": "Validation result of HTS active: effect of the compound in the JARID1B AlphaScreen demethylase assay", "setting": "JARID1B", "value": 37.80}, {"measurement": "Artifact signal: effect of the compound when it is incubated with bio-H3K4me2 peptide", "setting": "[1]", "value": 31.44}, {"measurement": "Artifact Signal (percent)", "setting": "[1]", "value": 2.37, "unit": "%"}]}, {"smiles": "O=c1c(O)c(-c2cc(O)c(O)c(O)c2)oc2cc(O)cc(O)c12", "note": "[YU155300, MYRICETIN, reference compound]", "values": [{"measurement": "inhibition at 20 µM", "setting": "JARID1B; [3]", "value": 72.1, "unit": "%"}, {"measurement": "Validation result of HTS active: effect of the compound in the JARID1B AlphaScreen demethylase assay", "setting": "JARID1B", "value": 74.84}, {"measurement": "Artifact signal: effect of the compound when it is incubated with bio-H3K4me2 peptide", "setting": "[1]", "value": 69.07}]}, {"smiles": "O=Cc1ccc(-c2ccc(S(=O)(=O)O)cc2)o1", "note": "[YU146454]", "values": [{"measurement": "Assay − Artifact Signal (percent)", "setting": "JARID1B", "value": 68.83, "unit": "%"}, {"measurement": "inhibition at 20 µM", "setting": "JARID1B; [3]", "value": 42.3, "unit": "%"}, {"measurement": "Assay Signal (percent)", "setting": "JARID1B", "value": 64.68, "unit": "%"}, {"measurement": "Artifact Signal (percent)", "setting": "[1]", "value": "−4.14", "unit": "%"}]}, {"smiles": "CCC(=O)O[C@]1(C(=O)CCl)[C@@H](C)C[C@H]2[C@@H]3CCC4=CC(=O)C=C[C@]4(C)[C@@]3(F)[C@@H](O)C[C@@]21C", "note": "[YU034506, CLOBETASOL PROPIONATE, reference compound]", "values": [{"measurement": "inhibition at 20 µM", "setting": "JARID1B; [3]", "value": 98.9, "unit": "%"}, {"measurement": "Validation result of HTS active: effect of the compound in the JARID1B AlphaScreen demethylase assay", "setting": "JARID1B", "value": 5.62}, {"measurement": "Artifact signal: effect of the compound when it is incubated with bio-H3K4me2 peptide", "setting": "[1]", "value": "−1.34"}]}, {"smiles": "NCCc1cc(O)c(O)cc1O", "note": "[YU033940, OXIDOPAMINE HYDROCHLORIDE, reference compound]", "values": [{"measurement": "Assay − Artifact Signal (percent)", "setting": "JARID1B", "value": 19.88, "unit": "%"}, {"measurement": "inhibition at 20 µM", "setting": "JARID1B; [3]", "value": 41, "unit": "%"}, {"measurement": "Assay Signal (percent)", "setting": "JARID1B", "value": 36.84, "unit": "%"}, {"measurement": "Artifact Signal (percent)", "setting": "[1]", "value": 16.96, "unit": "%"}]}, {"smiles": "Nc1c([N+](=O)[O-])cc(F)c(N2CCOCC2)c1Br", "note": "[YU152451]", "values": [{"measurement": "inhibition at 20 µM", "setting": "JARID1B; [3]", "value": 74.6, "unit": "%"}, {"measurement": "Validation result of HTS active: effect of the compound in the JARID1B AlphaScreen demethylase assay", "setting": "JARID1B", "value": 2.82}, {"measurement": "Artifact signal: effect of the compound when it is incubated with bio-H3K4me2 peptide", "setting": "[1]", "value": "−3.09"}]}, {"smiles": "Cc1nn2c(=O)[nH]c3sc4c(c3c2nc1=O)CC(C)(C)OC4", "note": "[YU152236]", "values": [{"measurement": "Assay − Artifact Signal (percent)", "setting": "JARID1B", "value": 43.69, "unit": "%"}, {"measurement": "inhibition at 20 µM", "setting": "JARID1B; [3]", "value": 51.6, "unit": "%"}, {"measurement": "Assay Signal (percent)", "setting": "JARID1B", "value": 49.40, "unit": "%"}, {"measurement": "Artifact Signal (percent)", "setting": "[1]", "value": 5.71, "unit": "%"}]}]}
